In patent publication US20250171437A1 (Agios Pharmaceuticals,Inc., priority 2022, published 2025):

biological target: T1, human PAH with the R408W mutation (A375 R408W cells) (Homo sapiens, UniProt P00439, R408W); test: Cell Based Phenylalanine Flux Assay; conditions: A375 R408W cells; 24 hrs with compound, then 20 μM sepiapterin and 800 μM 13C9,15N-Phenylalanine for 4 hours; 13C-Tyrosine by LC-MS; average where tested multiple times
T1 construct: expressed in transfected cells
T1 sequence (P00439 1-452 R408W): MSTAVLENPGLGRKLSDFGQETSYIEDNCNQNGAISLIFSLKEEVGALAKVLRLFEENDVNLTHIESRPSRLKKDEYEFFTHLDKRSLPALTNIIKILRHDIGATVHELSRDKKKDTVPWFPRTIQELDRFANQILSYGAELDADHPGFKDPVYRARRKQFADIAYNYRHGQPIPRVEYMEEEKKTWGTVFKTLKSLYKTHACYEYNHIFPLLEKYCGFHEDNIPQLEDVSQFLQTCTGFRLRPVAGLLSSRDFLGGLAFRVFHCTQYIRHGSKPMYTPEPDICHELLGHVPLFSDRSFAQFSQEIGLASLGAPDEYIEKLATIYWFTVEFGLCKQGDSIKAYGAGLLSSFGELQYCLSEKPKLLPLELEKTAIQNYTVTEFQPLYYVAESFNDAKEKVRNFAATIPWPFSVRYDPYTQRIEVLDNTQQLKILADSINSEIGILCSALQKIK
Method in brief: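 Puromycin-selected A375 line, lentiviral hPAH R408W; cmpd 24 h, 37 °C, 5% CO2, 0.5% DMSO; then 20 μM sepiapterin + 800 μM 13C9,15N-Phe, 4 h; media extracted in 80% MeCN; 13C-Tyr by LC-MS; AC50 from 10-pt curves.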

**Q.** `O=C(c1oc(-c2ccncc2)nc1C(F)F)N1CCc2[nH]cnc2[C@H]1c1nc2cccc(F)c2o1` [Example 560, (S)-(4-(difluoromethyl)-2-(pyridin-4-yl)oxazol-5-yl)(4-(7-fluorobenzo[d]oxazol-2-yl)-6,7-dihydro-1H-imidazo[4,5-c]pyridin-5(4H)-yl)methanone] was tested. Which AC50 did it give?
**A.** Its AC50 is at most 0.5 µM.

**Q.** With `Cc1cnn(C)c1-c1nnc(C(=O)N2CCc3[nH]cnc3[C@H]2c2nc3cc(F)ccc3o2)o1` [Example 119, (S)-(5-(1,4-dimethyl-1H-pyrazol-5-yl)-1,3,4-oxadiazol-2-yl)(4-(5-fluorobenzo[d]oxazol-2-yl)-6,7-dihydro-1H-imidazo[4,5-c]pyridin-5(4H)-yl)methanone] as the compound, how does the AC50 read?
**A.** The AC50 was 0.5 to 1 µM.

**Q.** How did the AC50 turn out when `Cc1c(F)ccc2oc([C@H]3c4nc[nH]c4CCN3C(=O)c3oc(C(C)(C)O)nc3C(F)F)nc12` [Example 720, (R)-(4-(difluoromethyl)-2-(2-hydroxypropan-2-yl)oxazol-5-yl)(4-(5-fluoro-4-methylbenzo[d]oxazol-2-yl)-6,7-dihydro-1H-imidazo[4,5-c]pyridin-5(4H)-yl)methanone] was run?
**A.** Its AC50 is 0.5 to 1 µM.

**Q.** `O=C(c1ocnc1C(F)F)N1CCc2[nH]cnc2[C@@H]1c1nc2cccc(Cl)c2o1` [Example 426, (R)-(4-(7-chlorobenzo[d]oxazol-2-yl)-6,7-dihydro-1H-imidazo[4,5-c]pyridin-5(4H)-yl)(4-(difluoromethyl)oxazol-5-yl)methanone] was tested. Which AC50 did it give?
**A.** The AC50 was at most 0.5 µM.

**Q.** Which AC50 does the source give for `O=C(c1ocnc1CC(F)F)N1CCc2[nH]cnc2[C@@H]1c1nc2ccccc2o1` [Example 874, (R)-(4-(benzo[d]oxazol-2-yl)-6,7-dihydro-1H-imidazo[4,5-c]pyridin-5(4H)-yl)(4-(2,2-difluoroethyl)oxazol-5-yl)methanone] here?
**A.** The AC50 was 0.5 to 1 µM.

**Q.** How did the AC50 turn out when `O=C(c1ocnc1CC(F)F)N1CCc2[nH]cnc2[C@H]1c1nc2cc(F)ccc2o1` [Example 865, (S)-(4-(2,2-difluoroethyl)oxazol-5-yl)(4-(5-fluorobenzo[d]oxazol-2-yl)-6,7-dihydro-1H-imidazo[4,5-c]pyridin-5(4H)-yl)methanone] was run?
**A.** Its AC50 is at most 0.5 µM.

**Q.** Which AC50 does the source give for `CC(C)(C)c1nc(C(F)F)c(C(=O)N2CCc3[nH]cnc3[C@H]2c2nc3cc(F)ccc3o2)o1` [Example 753, (S)-(2-(tert-butyl)-4-(difluoromethyl)oxazol-5-yl)(4-(5-fluorobenzo[d]oxazol-2-yl)-6,7-dihydro-1H-imidazo[4,5-c]pyridin-5(4H)-yl)methanone] here?
**A.** Its AC50 is at most 0.5 µM.

**Q.** `CC(C)(O)c1nc(C(F)(F)F)c(C(=O)N2CCc3[nH]cnc3[C@@H]2c2nc3cccc(F)c3o2)o1` [Example 254, (R)-(4-(7-fluorobenzo[d]oxazol-2-yl)-6,7-dihydro-1H-imidazo[4,5-c]pyridin-5(4H)-yl)(2-(2-hydroxypropan-2-yl)-4-(trifluoromethyl)oxazol-5-yl)methanone] was tested. Which AC50 did it give?
**A.** The AC50 was at most 0.5 µM.

**Q.** `COc1ccc(-c2nc(C(F)F)c(C(=O)N3CCc4[nH]cnc4[C@@H]3c3nc4cccc(F)c4o3)o2)nc1` [Example 615, (R)-(4-(difluoromethyl)-2-(5-methoxypyridin-2-yl)oxazol-5-yl)(4-(7-fluorobenzo[d]oxazol-2-yl)-6,7-dihydro-1H-imidazo[4,5-c]pyridin-5(4H)-yl)methanone] was tested. Which AC50 did it give?
**A.** Its AC50 is at most 0.5 µM.

**Q.** `Cc1ccc2oc([C@H]3c4nc[nH]c4CCN3C(=O)c3oc(-c4ccccn4)nc3C(F)F)nc2c1` [Example 738, (R)-(4-(difluoromethyl)-2-(pyridin-2-yl)oxazol-5-yl)(4-(5-methylbenzo[d]oxazol-2-yl)-6,7-dihydro-1H-imidazo[4,5-c]pyridin-5(4H)-yl)methanone] was tested. Which AC50 did it give?
**A.** Its AC50 is 1 to 5 µM.

**Q.** `O=C(c1nnc(-c2cnn(C(F)F)c2)o1)N1CCc2[nH]cnc2[C@@H]1c1nc2ccccc2o1` [Example 842, (R)-(4-(benzo[d]oxazol-2-yl)-6,7-dihydro-1H-imidazo[4,5-c]pyridin-5(4H)-yl)(5-(1-(difluoromethyl)-1H-pyrazol-4-yl)-1,3,4-oxadiazol-2-yl)methanone] was tested. Which AC50 did it give?
**A.** The AC50 was 1 to 5 µM.

**Q.** `CC(C)(O)c1nc(C2CC2)c(C(=O)N2CCc3[nH]cnc3[C@H]2c2nc3cc(F)ccc3o2)o1` [Example 557, (S)-(4-cyclopropyl-2-(2-hydroxypropan-2-yl)oxazol-5-yl)(4-(5-fluorobenzo[d]oxazol-2-yl)-6,7-dihydro-1H-imidazo[4,5-c]pyridin-5(4H)-yl)methanone] was tested. Which AC50 did it give?
**A.** The AC50 was at most 0.5 µM.

**Q.** With `COc1cccc2nc([C@H]3c4nc[nH]c4CCN3C(=O)c3ocnc3C(F)F)oc12` [Example 458, (R)-(4-(difluoromethyl)oxazol-5-yl)(4-(7-methoxybenzo[d]oxazol-2-yl)-6,7-dihydro-1H-imidazo[4,5-c]pyridin-5(4H)-yl)methanone] as the compound, how does the AC50 read?
**A.** The AC50 was at most 0.5 µM.

**Q.** `Cn1cc(-c2nnc(C(=O)N3CCc4[nH]cnc4[C@@H]3c3nc4cc(F)cc(F)c4o3)o2)cn1` [Example 666, (R)-(4-(5,7-difluorobenzo[d]oxazol-2-yl)-6,7-dihydro-1H-imidazo[4,5-c]pyridin-5(4H)-yl)(5-(1-methyl-1H-pyrazol-4-yl)-1,3,4-oxadiazol-2-yl)methanone] was tested. Which AC50 did it give?
**A.** The AC50 was at most 0.5 µM.

**Q.** `CC(C)(O)c1nc(C2CC2)c(C(=O)N2CCc3[nH]cnc3[C@@H]2c2nc3cc(F)ccc3o2)o1` [Example 558, (R)-(4-cyclopropyl-2-(2-hydroxypropan-2-yl)oxazol-5-yl)(4-(5-fluorobenzo[d]oxazol-2-yl)-6,7-dihydro-1H-imidazo[4,5-c]pyridin-5(4H)-yl)methanone] was tested. Which AC50 did it give?
**A.** Its AC50 is 1 to 5 µM.

**Q.** For `O=C(c1ccnn1C(F)F)N1CCc2[nH]cnc2[C@H]1c1nc2cc(F)ccc2o1` [Example 93, (S)-(1-(difluoromethyl)-1H-pyrazol-5-yl)(4-(5-fluorobenzo[d]oxazol-2-yl)-6,7-dihydro-1H-imidazo[4,5-c]pyridin-5(4H)-yl)methanone], which AC50 is on record?
**A.** The AC50 was 0.5 to 1 µM.

**Q.** For `c1ccc2oc([C@H]3c4nc[nH]c4CN3c3nc4ccccc4o3)nc2c1` (single isomer, unassigned) [Example 932], which AC50 is on record?
**A.** Its AC50 is 1 to 5 µM.

**Q.** Which AC50 does the source give for `Cn1ccc(-c2nnc(C(=O)N3CCc4[nH]cnc4[C@H]3c3nc4ccc(F)cc4o3)o2)n1` [Example 321, (S)-(4-(6-fluorobenzo[d]oxazol-2-yl)-6,7-dihydro-1H-imidazo[4,5-c]pyridin-5(4H)-yl)(5-(1-methyl-1H-pyrazol-3-yl)-1,3,4-oxadiazol-2-yl)methanone] here?
**A.** Its AC50 is 0.5 to 1 µM.

**Q.** `Cc1cc(F)c2oc([C@H]3c4nc[nH]c4CCN3C(=O)c3oc(C(C)(C)O)nc3C(F)F)nc2c1` [Example 500, (R)-(4-(difluoromethyl)-2-(2-hydroxypropan-2-yl)oxazol-5-yl)(4-(7-fluoro-5-methylbenzo[d]oxazol-2-yl)-6,7-dihydro-1H-imidazo[4,5-c]pyridin-5(4H)-yl)methanone] was tested. Which AC50 did it give?
**A.** The AC50 was at most 0.5 µM.

**Q.** With `Cc1ccc(F)c2nc([C@@H]3c4nc[nH]c4CCN3C(=O)c3ocnc3C(F)F)oc12` [Example 743, (S)-(4-(difluoromethyl)oxazol-5-yl)(4-(4-fluoro-7-methylbenzo[d]oxazol-2-yl)-6,7-dihydro-1H-imidazo[4,5-c]pyridin-5(4H)-yl)methanone] as the compound, how does the AC50 read?
**A.** Its AC50 is at most 0.5 µM.

**Q.** With `O=C(c1ccnn1C(F)F)N1CCc2[nH]cnc2[C@H]1c1nc2c(F)ccc(F)c2o1` [Example 487, (S)-(4-(4,7-difluorobenzo[d]oxazol-2-yl)-6,7-dihydro-1H-imidazo[4,5-c]pyridin-5(4H)-yl)(1-(difluoromethyl)-1H-pyrazol-5-yl)methanone] as the compound, how does the AC50 read?
**A.** Its AC50 is at most 0.5 µM.

**Q.** How did the AC50 turn out when `Cc1nc([C@@H](C)O)oc1C(=O)N1CCc2[nH]cnc2[C@@H]1c1nc2cccc(F)c2o1` [Example 218, ((R)-4-(7-fluorobenzo[d]oxazol-2-yl)-6,7-dihydro-1H-imidazo[4,5-c]pyridin-5(4H)-yl)(2-((R)-1-hydroxyethyl)-4-methyloxazol-5-yl)methanone] was run?
**A.** The AC50 was 1 to 5 µM.

same assay, conditions: A375 cells expressing R408W PAH; 24 hrs with compound, then 20 μM sepiapterin and 800 μM 13C9,15N-Phenylalanine for 4 hours; 13C-Tyrosine by LC-MS; average where tested multiple times

**Q.** For `Cc1ncoc1C(=O)N1CCc2[nH]cnc2C1c1nc2cc(F)ccc2o1` (stereo not drawn), which AC50 is on record?
**A.** Its AC50 is 1 to 5 µM.

**Q.** `COc1ccc2oc(C3c4nc[nH]c4CCN3C(=O)c3nc(C)nn3C)nc2c1` (stereo not drawn) was tested. Which AC50 did it give?
**A.** The AC50 was 1 to 5 µM.

**Q.** With `Cn1cncc1-c1nnc(C(=O)N2CCc3[nH]cnc3C2c2nc3c(F)ccc(F)c3o2)o1` (stereo not drawn) as the compound, how does the AC50 read?
**A.** Its AC50 is 1 to 5 µM.

**Q.** For `O=C(c1nnc(-c2ccccn2)o1)N1CCc2[nH]cnc2C1c1nc2cc(C(F)(F)F)ccc2o1` (stereo not drawn), which AC50 is on record?
**A.** Its AC50 is 1 to 5 µM.

**Q.** `O=C(c1nnc(-c2cnn(S(=O)(=O)C3CC3)c2)o1)N1CCc2[nH]cnc2C1c1nc2cc(F)ccc2o1` (stereo not drawn) was tested. Which AC50 did it give?
**A.** Its AC50 is at least 5 µM.

**Q.** Which AC50 does the source give for `Cn1cc(-c2ncc(C(=O)N3CCc4[nH]cnc4C3c3nc4ccc(Br)cc4o3)o2)cn1` (stereo not drawn) here?
**A.** The AC50 was at least 5 µM.

**Q.** For `CC(C)(O)c1cc(C(=O)N2CCc3[nH]cnc3C2c2nc3cc(F)ccc3o2)on1` (stereo not drawn), which AC50 is on record?
**A.** The AC50 was 1 to 5 µM.

**Q.** `O=C(c1cnco1)N1CCc2[nH]cnc2C1c1nc2cc(F)ccc2o1` (stereo not drawn) was tested. Which AC50 did it give?
**A.** Its AC50 is 1 to 5 µM.

**Q.** How did the AC50 turn out when `Cn1cc(-c2nnc(C(=O)N3CCc4[nH]cnc4C3c3nc4ccc(F)cc4o3)o2)cn1` (stereo not drawn) was run?
**A.** The AC50 was 1 to 5 µM.

**Q.** Which AC50 does the source give for `Cc1nc(-c2cnn(C)c2)sc1C(=O)N1CCc2[nH]cnc2C1c1nc2cc(F)ccc2o1` (stereo not drawn) here?
**A.** The AC50 was 1 to 5 µM.

**Q.** How did the AC50 turn out when `Cc1ncoc1C(=O)N1CC2(CC2)c2[nH]cnc2C1c1nc2cc(F)ccc2o1` (stereo not drawn) was run?
**A.** Its AC50 is 1 to 5 µM.

**Q.** With `O=C(c1cnco1)N1CCc2[nH]cnc2C1c1nc2c(F)cccc2o1` (stereo not drawn) as the compound, how does the AC50 read?
**A.** The AC50 was 1 to 5 µM.

**Q.** For `CC(C)(C)OC(=O)N1CC(c2nnc(C(=O)N3CCc4[nH]cnc4C3c3nc4cc(F)ccc4o3)o2)C1` (stereo not drawn), which AC50 is on record?
**A.** The AC50 was 1 to 5 µM.

**Q.** For `O=C(c1cnn2cc(CCN3CCOCC3)ccc12)N1CCc2[nH]cnc2C1c1nc2cc(F)ccc2o1` (stereo not drawn), which AC50 is on record?
**A.** The AC50 was at least 5 µM.
